Laboratory results: US6815170B1, “Methods for lymph node identification” (John Wayne Cancer Institute, priority 1999, dated 2004)
“Also recorded” adds a separate entry of the source.

How the values were obtained:
[1] = tested on: malignant melanoma; details: liver and lung; cited from earlier work
[2] = tested on: sentinel lymph node; assay: Intraoperative lymphatic mapping / sentinel lymph node dissection with histologic evaluation for carbon particles; type: in vivo, Sprague-Dawley rats; details: for basins in which afferent lymphatic channel and stained (sentinel) node were identified: 0.04 cc intradermal, lower extremity, incision 5 min after injection
From the text: Twenty-two adult Sprague-Dawley rats weighing 300-500 g were obtained after receiving approval from the Animal Care and Use Committee at the Harbor-UCLA Research and Education Institute. All animals were obtained at least one day prior to planned procedures.
Isosulfan blue dye (Lymphazurin 1%) was obtained from Hirsch Industries, Inc. (Richmond, Va.). Carbon dye containing 6% carbon black (# 4415) was obtained from Sanford Corporation (Bellwood, Ill.) and either used alone at full strength or mixed with isosulfan blue and/or sterile normal saline in the concentrations shown in Table 1.
All mapping solutions containing ink were sterilized in an autoclave at 121° C. for 25 m, prior to injection.
All procedures were performed under general anesthesia. Rats were anesthetized with a mixture of ketamine (42.9 mg/kg), xylazine (8.6 mg/kg), and acepromazine (1.4 mg/kg). A half-dose of this mixture was readministered at 60 minutes and then every 30 minutes. Buprenorphine (0.01-0.05 mg/kg) was administered subcutaneously for postoperative analgesia.
The inguinal regions of the animals were shaved. A 29-gauge needle with a 1-cc tuberculin syringe was used to inject 0.04 cc of the mapping solution intradermally just below the medial aspect of the knee on the lower extremity. Five minutes later, and under sterile conditions, an incision was made over the region of the inguinal lymph nodes. […] The lymphatic was followed to the first stained lymph node. Further dissection was carried out to identify additional stained nodes. All stained nodes were removed and placed in formalin. Nonstained nodes in the same drainage basin were removed and fixed in a similar fashion, and analyzed for carbon particles. The identical procedure was performed on the contralateral extremity of each animal using an alternative mapping mixture.
Lymph nodes were placed in paraffin blocks, serially sectioned, and stained with hematoxylin and eosin (H and E). Each lymph node was evaluated by light microscopy for the presence of carbon particles.

| Structure (SMILES) | uptake by non-tumor tissue [1] | basins in which afferent lymphatic channel and stained (sentinel) node were identified ([2]; listed as Isosulfan blue) | basins in which afferent lymphatic channel and stained (sentinel) node were identified ([2]; listed as Isosulfan blue dye) | total number of sentinel nodes ([2]; 6 basins) |
| --- | --- | --- | --- | --- |
| CCN(CC)CCNC(=O)c1ccc(I)cc1 [IDAB, N-(diethylaminoethyl)4-iodobenzamide] | taken up in high concentrations by non-melanoma cells in the liver and lung | – | – | – |
| CCN(CC)c1ccc(C(=C2C=CC(=[N+](CC)CC)C=C2)c2cc(S(=O)(=O)[O-])ccc2S(=O)(=O)[O-])cc1.[Na+] [isosulfan blue dye, isosulfan blue] | – | effectively identified the lymphatic channel and sentinel node(s); also recorded: clearly identified one sentinel node in each paired basin | all 6 | 8 |
